Results published in US7138361B2, “Herbicidal heterocycles” (E. I. du Pont de Nemours and Company, priority 2000, dated 2006).

Columns and labels:
Format in all cases: in vivo
[1] = tested on: giant foxtail (Setaria faberii); assay: Test B postemergence
Procedure, shortened: (§1)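 Pre: seeded pots sprayed, chemical in non-phytotoxic solvent/surfactant mix. Post: plants 2–18 cm, 1–4 leaf, same formulation. Greenhouse 13–15 d; visual % control vs untreated, 0–100 scale.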

[2] = tested on: wheat (Triticum aestivum); assay: Test B postemergence
Procedure, shortened: as §1

corn (Zea mays) = assay: Test B postemergence
Procedure, shortened: as §1

[3] = tested on: crabgrass (Digitaria sanguinalis); assay: Test B postemergence
Procedure, shortened: as §1

[4] = tested on: morning glory (Ipomoea hederacea); assay: Test B postemergence
Procedure, shortened: as §1

[5] = tested on: velvetleaf (Abutilon theophrasti); assay: Test B postemergence
Procedure, shortened: as §1

[6] = tested on: Surinam grass (Brachiaria decumbens); assay: Test B postemergence
Procedure, shortened: as §1

[7] = tested on: pigweed (Amaranthus retroflexus); assay: Test B postemergence
Procedure, shortened: as §1

[8] = tested on: blackgrass (Alopecurus myosuroides); assay: Test B postemergence
Procedure, shortened: as §1

wild oat (Avena fatua) = assay: Test B postemergence
Procedure, shortened: as §1

[9] = tested on: cocklebur (Xanthium strumarium); assay: Test B postemergence
Procedure, shortened: as §1

[10] = tested on: barnyardgrass (Echinochloa crus-galli); assay: Test B postemergence
Procedure, shortened: as §1

[11] = tested on: lambsquarters (Chenopodium album); assay: Test B postemergence
Procedure, shortened: as §1

Sunflower [12] = assay: Test C preemergence; details: Rate 62 g/ha, scale 0 to 100
Sunflower [13] = assay: Test C preemergence; details: Rate 250 g/ha, scale 0 to 100, 0 no effect, 100 complete control
rice (Oryza saliva) = assay: Test C flooded paddy test; details: for Rice plant response rating: Flooded Paddy, Rate 500 g/ha, scale 0 to 100, 0 no effect, 100 complete control; for Plant response rating, Rice / Plant response rating (scale 0 to 100), Rice: flooded paddy test; for Plant response rating, Rice: scale 0 to 100 (0 no effect, 100 complete control); for Plant response rating (scale 0 to 100), Rice: Rate 62 g/ha, visually evaluated after 12 to 14 days, 0 = no effect, 100 = complete control
Procedure, shortened: (§2)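 Visual ratings (0 = no effect, 100 = complete control) were made 12–14 days after treatment, relative to greenhouse controls. Plants in the flooded paddy test were rice, smallflower flatsedge, duck salad and barnyardgrass, treated at the 2-leaf stage.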

[14] = tested on: duck salad (Heteranthera limosa); assay: Test C flooded paddy test; details: for Ducksalad plant response rating: Flooded Paddy, Rate 500 g/ha, scale 0 to 100, 0 no effect, 100 complete control; for Plant response rating, Ducksalad / Plant response rating (scale 0 to 100), Ducksalad: flooded paddy test; for Plant response rating, Ducksalad: scale 0 to 100 (0 no effect, 100 complete control); for Plant response rating (scale 0 to 100), Ducksalad: Rate 62 g/ha, visually evaluated after 12 to 14 days, 0 = no effect, 100 = complete control
Procedure, shortened: as §2

[15] = tested on: smallflower flatsedge (Cyperus difformis); assay: Test C flooded paddy test; details: for Flatsedge plant response rating: Flooded Paddy, Rate 500 g/ha, scale 0 to 100, 0 no effect, 100 complete control; for Plant response rating, Flatsedge / Plant response rating (scale 0 to 100), Flatsedge: flooded paddy test; for Plant response rating, Flatsedge: scale 0 to 100 (0 no effect, 100 complete control); for Plant response rating (scale 0 to 100), Flatsedge: Rate 62 g/ha, visually evaluated after 12 to 14 days, 0 = no effect, 100 = complete control
Procedure, shortened: as §2

[16] = tested on: barnyardgrass (Echinochloa crus-galli); assay: Test C flooded paddy test; details: for Barnyardgrass plant response rating: Flooded Paddy, Rate 500 g/ha, scale 0 to 100, 0 no effect, 100 complete control; for Plant response rating, Barnyardgrass / Plant response rating (scale 0 to 100), Barnyardgrass: flooded paddy test; for Plant response rating, Barnyardgrass: scale 0 to 100 (0 no effect, 100 complete control); for Plant response rating (scale 0 to 100), Barnyardgrass: Rate 62 g/ha, visually evaluated after 12 to 14 days, 0 = no effect, 100 = complete control
Procedure, shortened: as §2

[17] = tested on: common ragweed (Ambrosia elatior); assay: Test C preemergence; details: for Plant response rating (0 to 100), Ragweed, Common: Rate 500 g/ha, visual evaluation after 12 to 14 days
Procedure, shortened: (§3)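 Visual injury scores of 0–100, with 100 meaning complete control, were given relative to controls after 12–14 days in the greenhouse. Treatments used a surfactant-containing non-phytotoxic solvent formulation, sprayed on seeded pots preemergence or on 1–4-leaf plants of 2–18 cm postemergence.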

Sunflower [18] = assay: Test C preemergence; details: Rate 125 g/ha; scale 0 to 100, 0 no effect, 100 complete control
[19] = tested on: Surinam grass (Brachiaria decumbens); assay: Test C preemergence; details: for Plant response rating (0 to 100), Surinam grass: Rate 500 g/ha, visual evaluation after 12 to 14 days
Procedure, shortened: as §3

[20] = Rate 125 g/ha, scale 0 to 100, 0 no effect, 100 complete control
[21] = Rate 500 g/ha, scale 0 (no effect) to 100 (complete control), 13 to 15 days
[22] = preemergence, Rate 62 g/ha, scale 0 to 100
[23] = preemergence, Rate 250 g/ha, scale 0 to 100, 0 no effect, 100 complete control

CCC(C)c1ccn(C2CCN(c3ccc(Br)c(OC)c3)C2=O)n1 (stereo not drawn) [Compound 142]
Plant response rating, Foxtail, Giant [1, 20]: 30
Plant response rating, Foxtail, Giant [1, 21]: 90
Plant response rating, Wheat [2, 20]: 0
Plant response rating, Wheat [2, 21]: 0
Plant response rating, Corn (corn (Zea mays); [20]): 0
Plant response rating, Corn (corn (Zea mays); [21]): 30
Plant response rating, Crabgrass [3, 20]: 40
Plant response rating, Crabgrass [3, 21]: 60
Plant response rating, Morningglory [4, 20]: 70
Plant response rating, Morningglory [4, 21]: 100
Plant response rating, Velvetleaf [5, 20]: 40
Plant response rating, Velvetleaf [5, 21]: 70
Plant response rating, Surinam grass [6, 20]: 0
Plant response rating, Surinam grass [6, 21]: 0
Plant response rating, Pigweed [7, 20]: 60
Plant response rating, Pigweed [7, 21]: 80
Plant response rating, Blackgrass [8, 20]: 0
Plant response rating, Blackgrass [8, 21]: 0
Plant response rating, Wild Oat (wild oat (Avena fatua); [20]): 0
Plant response rating, Wild Oat (wild oat (Avena fatua); [21]): 0
Plant response rating, Cocklebur [9, 20]: 60
Plant response rating, Cocklebur [9, 21]: 90
Plant response rating, Barnyardgrass [10, 20]: 0
Plant response rating, Barnyardgrass [10, 21]: 60
Plant response rating, Lambsquarters [11, 20]: 70
Plant response rating, Lambsquarters [11, 21]: 100
Plant response rating, Sunflower (Sunflower [12]): 10
Plant response rating, Sunflower (Sunflower [13]): 80
Rice plant response rating (rice (Oryza saliva)): 55
Plant response rating, Rice (rice (Oryza saliva); Rate 125 g/ha): 25
Plant response rating, Rice (rice (Oryza saliva); Rate 250 g/ha): 45
Plant response rating (scale 0 to 100), Rice (rice (Oryza saliva)): 0
Ducksalad plant response rating [14]: 100
Plant response rating, Ducksalad ([14]; Rate 125 g/ha): 90
Plant response rating, Ducksalad ([14]; Rate 250 g/ha): 100
Plant response rating (scale 0 to 100), Ducksalad [14]: 30
Flatsedge plant response rating [15]: 95
Plant response rating, Flatsedge ([15]; Rate 125 g/ha): 95
Plant response rating, Flatsedge ([15]; Rate 250 g/ha): 95
Plant response rating (scale 0 to 100), Flatsedge [15]: 95
Barnyardgrass plant response rating [16]: 100
Plant response rating, Barnyardgrass ([16]; Rate 125 g/ha): 100
Plant response rating, Barnyardgrass ([16]; Rate 250 g/ha): 100
Plant response rating (scale 0 to 100), Barnyardgrass [16]: 80
Plant response rating, Ragweed, Common [17, 20]: 100
Plant response rating, Ragweed, Common [17, 22]: 0
Plant response rating (0 to 100), Ragweed, Common ([17]; preemergence): 100
Plant response rating, Ragweed, Common [17, 23]: 100
Plant response rating, Sunflower (Sunflower [18]): 20
Plant response rating, Surinam grass [19, 20]: 0
Plant response rating, Surinam grass [19, 22]: 0
Plant response rating (0 to 100), Surinam grass ([19]; preemergence): 100
Plant response rating, Surinam grass [19, 23]: 50

CCC(CC)c1ccn(C2CCN(c3ccc(Br)c(OC)c3)C2=O)n1 (stereo not drawn) [Compound 143]
Plant response rating, Foxtail, Giant [1, 20]: 30
Plant response rating, Foxtail, Giant [1, 21]: 80
Plant response rating, Wheat [2, 20]: 0
Plant response rating, Wheat [2, 21]: 0
Plant response rating, Corn (corn (Zea mays); [20]): 0
Plant response rating, Corn (corn (Zea mays); [21]): 0
Plant response rating, Crabgrass [3, 20]: 0
Plant response rating, Crabgrass [3, 21]: 80
Plant response rating, Morningglory [4, 20]: 30
Plant response rating, Morningglory [4, 21]: 100
Plant response rating, Velvetleaf [5, 20]: 50
Plant response rating, Velvetleaf [5, 21]: 70
Plant response rating, Surinam grass [6, 20]: 0
Plant response rating, Surinam grass [6, 21]: 0
Plant response rating, Pigweed [7, 20]: 70
Plant response rating, Pigweed [7, 21]: 90
Plant response rating, Blackgrass [8, 20]: 0
Plant response rating, Blackgrass [8, 21]: 0
Plant response rating, Wild Oat (wild oat (Avena fatua); [20]): 0
Plant response rating, Wild Oat (wild oat (Avena fatua); [21]): 0
Plant response rating, Cocklebur [9, 20]: 0
Plant response rating, Cocklebur [9, 21]: 100
Plant response rating, Barnyardgrass [10, 20]: 0
Plant response rating, Barnyardgrass [10, 21]: 70
Plant response rating, Lambsquarters [11, 20]: 80
Plant response rating, Lambsquarters [11, 21]: 100
Plant response rating, Sunflower (Sunflower [12]): 60
Plant response rating, Sunflower (Sunflower [13]): 80
Rice plant response rating (rice (Oryza saliva)): 60
Plant response rating, Rice (rice (Oryza saliva); Rate 125 g/ha): 30
Plant response rating, Rice (rice (Oryza saliva); Rate 250 g/ha): 50
Plant response rating (scale 0 to 100), Rice (rice (Oryza saliva)): 0
Ducksalad plant response rating [14]: 100
Plant response rating, Ducksalad ([14]; Rate 125 g/ha): 75
Plant response rating, Ducksalad ([14]; Rate 250 g/ha): 95
Plant response rating (scale 0 to 100), Ducksalad [14]: 45
Flatsedge plant response rating [15]: 100
Plant response rating, Flatsedge ([15]; Rate 125 g/ha): 95
Plant response rating, Flatsedge ([15]; Rate 250 g/ha): 95
Plant response rating (scale 0 to 100), Flatsedge [15]: 90
Barnyardgrass plant response rating [16]: 100
Plant response rating, Barnyardgrass ([16]; Rate 125 g/ha): 100
Plant response rating, Barnyardgrass ([16]; Rate 250 g/ha): 100
Plant response rating (scale 0 to 100), Barnyardgrass [16]: 55
Plant response rating, Ragweed, Common [17, 20]: 100
Plant response rating, Ragweed, Common [17, 22]: 90
Plant response rating (0 to 100), Ragweed, Common ([17]; preemergence): 100
Plant response rating, Ragweed, Common [17, 23]: 100
Plant response rating, Sunflower (Sunflower [18]): 80
Plant response rating, Surinam grass [19, 20]: 0
Plant response rating, Surinam grass [19, 22]: 0
Plant response rating (0 to 100), Surinam grass ([19]; preemergence): 70
Plant response rating, Surinam grass [19, 23]: 70

COc1cc(N2CCC(n3ccc(C(C)(C)C)n3)C2=O)ccc1Br (stereo not drawn) [Compound 141]
Plant response rating, Foxtail, Giant [1, 20]: 30
Plant response rating, Foxtail, Giant [1, 21]: 50
Plant response rating, Wheat [2, 20]: 0
Plant response rating, Wheat [2, 21]: 0
Plant response rating, Corn (corn (Zea mays); [20]): 0
Plant response rating, Corn (corn (Zea mays); [21]): 0
Plant response rating, Crabgrass [3, 20]: 20
Plant response rating, Crabgrass [3, 21]: 40
Plant response rating, Morningglory [4, 20]: 0
Plant response rating, Morningglory [4, 21]: 70
Plant response rating, Velvetleaf [5, 20]: 50
Plant response rating, Velvetleaf [5, 21]: 70
Plant response rating, Surinam grass [6, 20]: 0
Plant response rating, Surinam grass [6, 21]: 0
Plant response rating, Pigweed [7, 20]: 80
Plant response rating, Pigweed [7, 21]: 100
Plant response rating, Blackgrass [8, 20]: 0
Plant response rating, Blackgrass [8, 21]: 40
Plant response rating, Wild Oat (wild oat (Avena fatua); [20]): 0
Plant response rating, Wild Oat (wild oat (Avena fatua); [21]): 0
Plant response rating, Cocklebur [9, 20]: 40
Plant response rating, Cocklebur [9, 21]: 100
Plant response rating, Barnyardgrass [10, 20]: 0
Plant response rating, Barnyardgrass [10, 21]: 80
Plant response rating, Lambsquarters [11, 20]: 90
Plant response rating, Lambsquarters [11, 21]: 100
Plant response rating, Sunflower (Sunflower [12]): 30
Plant response rating, Sunflower (Sunflower [13]): 40
Rice plant response rating (rice (Oryza saliva)): 35
Plant response rating, Rice (rice (Oryza saliva); Rate 125 g/ha): 25
Plant response rating, Rice (rice (Oryza saliva); Rate 250 g/ha): 30
Plant response rating (scale 0 to 100), Rice (rice (Oryza saliva)): 0
Ducksalad plant response rating [14]: 100
Plant response rating, Ducksalad ([14]; Rate 125 g/ha): 95
Plant response rating, Ducksalad ([14]; Rate 250 g/ha): 100
Plant response rating (scale 0 to 100), Ducksalad [14]: 85
Flatsedge plant response rating [15]: 95
Plant response rating, Flatsedge ([15]; Rate 125 g/ha): 90
Plant response rating, Flatsedge ([15]; Rate 250 g/ha): 95
Plant response rating (scale 0 to 100), Flatsedge [15]: 90
Barnyardgrass plant response rating [16]: 100
Plant response rating, Barnyardgrass ([16]; Rate 125 g/ha): 100
Plant response rating, Barnyardgrass ([16]; Rate 250 g/ha): 100
Plant response rating (scale 0 to 100), Barnyardgrass [16]: 70
Plant response rating, Ragweed, Common [17, 20]: 100
Plant response rating, Ragweed, Common [17, 22]: 100
Plant response rating (0 to 100), Ragweed, Common ([17]; preemergence): 100
Plant response rating, Ragweed, Common [17, 23]: 100
Plant response rating, Sunflower (Sunflower [18]): 40
Plant response rating, Surinam grass [19, 20]: 20
Plant response rating, Surinam grass [19, 22]: 10
Plant response rating (0 to 100), Surinam grass ([19]; preemergence): 100
Plant response rating, Surinam grass [19, 23]: 20
